Test system: AMPK
Assay: AMPK phosphorylation (pAMPK) in myocytes (Western blotting)
Format: cell-based
From the text: During fasting or exercising, myocytes are depleted of energy, which causes a decrease in ATP production and an increase in AMP production. It is well known that, in this case, cells activate AMPK signaling to increase cellular homeostasis against metabolic stress. To evaluate a metabolic function regulating effect of Lactobacillus bacteria-derived vesicles, myocytes were each treated with Lactobacillus paracasei-derived vesicles (MDH-001-CM) and Lactobacillus rhamnosus-derived vesicles (MDH-003-CM) at concentrations of 0, 0.1, 1, and 10 μg/ml for 1 hour. Afterwards, the degree of AMPK phosphorylation (pAMPK), an indicator of AMPK signaling, was measured by Western blotting. As control drugs, 1 μM insulin and 50 mM metformin were used.

Compound	phosphorylation of AMPK (pAMPK) (50 mM metformin)	phosphorylation of AMPK (pAMPK) (1 μM insulin)
CN(C)C(=N)N=C(N)N [metformin]	increased	
insulin		inhibited

Source: patent US20240358779A1, “EXTRACELLULAR VESICLES DERIVED FROM LACTOBACILLUS BACTERIA, AND USE THEREOF” (MD HEALTHCARE INC., priority 2021, published 2024)
